Key:
IL-8 = IL-8 in conditioned medium of 3D ciliated airway tissues, sandwich ELISA; type: cell-based, human; conditions: LPS 1 μg/ml, 72 h total contact
Protocol: (§1) A second study was undertaken to assess the ability of the select hydrolysable tannins to inhibit select pro-inflammatory interleukins, namely IL-6 and IL-8. The study was conducted using reconstituted human ciliated airway tissue. Specifically, Ninety Six 3D ciliated airway tissues (cat. #34839) were obtained from Mattek (Ashland, Mass.) and were cultured in Assay Media (cat. #031921JRD, MatTek). The tissue samples were rinsed twice before incubation with the MTT reagents. The test materials themselves were solubilized and diluted in sterile distilled water and added to the feeder chamber medium contacting the basal side of the tissues on Day 1. The test material was also applied topically on Day 2 together with LPS (added where indicated at 1 μg/ml, from Escherichia coli 0113, Cayman Chemical Company, Ann Arbor, Mich.) for total contact time of 72 h. The experiments were tested in triplicates or duplicates.
(§2) Following the exposures to the test materials, 1L-6 and IL-8 were quantified in the tissue culture—conditioned medium by sandwich ELISA (Table 4A and 4B). The effect of the test materials on mitochondrial metabolism was measured by the MTT assay, which quantifies the activity of mitochondrial dehydrogenases, such as succinate dehydrogenase, implicated in the respiratory electron transport chain in mitochondria. The MTT conversion values were also used to standardize the IL-6, IL-8 output data to tissue viability.

IL-6 = IL-6 in conditioned medium of 3D ciliated airway tissues, sandwich ELISA; type: cell-based, human; conditions: LPS 1 μg/ml, 72 h total contact
Protocol: as §1, §2

[1] = target: SARS-CoV-2 RNA Polymerase (RdRp) (Severe acute respiratory syndrome coronavirus 2, UniProt P0DTD1); experiment: SARS-CoV-2 RNA Polymerase (RdRp) Assay Kit, fluorescent enzymatic activity in vitro; type: biochemical; conditions: for RdRp activity, % of Control: vs water control; for inhibition of SARS-CoV-2 RNA replication (in words): summary of Tables 1 and 2
Covid-19 patients = conditions: after treatment; preliminary findings, 21 patients; cited from earlier work
[2] = 10 μg/ml, standardized to MTT viability
[3] = 10 μgm/ml, standardized to MTT viability
[4] = 100 μg test material (0.209-0.213 μM)

Molecule: O=C(O)C[C@@H]1C(=O)O[C@H]2[C@@H]3OC(=O)c4cc(O)c(O)c(O)c4-c4c(cc(O)c(O)c4O)C(=O)OC[C@H]2O[C@@H](OC(=O)c2cc(O)c(O)c(O)c2)[C@@H]3OC(=O)c2cc(O)c(O)c3c2[C@H]1[C@H](O)C(=O)O3 [Chebulagic acid]
- IL-8, % of Control (IL-8; [2]): 112 % of Control
- IL-8, % of Control (IL-8; 50 μg/ml): 100 % of Control
- IL-8, % of Control (IL-8; 200 μg/ml): 66 % of Control
- IL-6, % of Control (IL-6; [3]): 70 % of Control
- IL-6, % of Control (IL-6; 50 μgm/ml): 40 % of Control
- IL-6, % of Control (IL-6; 200 μgm/ml): 5 % of Control
- RdRp activity, % of Control ([1]; 10 μg test material): 35 % of Control
- RdRp activity, % of Control ([1]; 50 μg test material): 10 % of Control
- RdRp activity, % of Control [1, 4]: 8 % of Control
- inhibition of SARS-CoV-2 RNA replication (in words) [1]: marked inhibition

Molecule: O=C(O)C[C@H](C(=O)O)[C@H]1c2c(cc(O)c(O)c2O)C(=O)O[C@@H]1C(=O)O [Chebulic acid, reference compound]
- IL-8, % of Control (IL-8; [2]): 96 % of Control
- IL-8, % of Control (IL-8; 50 μg/ml): 108 % of Control
- IL-8, % of Control (IL-8; 100 μg/ml): 111 % of Control
- IL-6, % of Control (IL-6; [3]): 68 % of Control
- IL-6, % of Control (IL-6; 50 μgm/ml): 106 % of Control
- IL-6, % of Control (IL-6; 100 μgm/ml): 78 % of Control
- RdRp activity, % of Control ([1]; 10 μg test material): 105 % of Control
- RdRp activity, % of Control ([1]; 50 μg test material): 96 % of Control
- inhibition of SARS-CoV-2 RNA replication (in words) [1]: neither Lopinavir, a commercial inhibitor of viral RNA replication, nor chebulic acid manifested effective inhibition

Molecule: O=C(O)C[C@H]1C(=O)O[C@H]2[C@H](OC(=O)c3cc(O)c(O)c(O)c3)[C@@H](OC(=O)c3cc(O)c(O)c4c3[C@H]1[C@H](O)C(=O)O4)[C@H](OC(=O)c1cc(O)c(O)c(O)c1)O[C@@H]2COC(=O)c1cc(O)c(O)c(O)c1 [Chebulinic acid]
- IL-8, % of Control (IL-8; [2]): 114 % of Control
- IL-8, % of Control (IL-8; 50 μg/ml): 109 % of Control
- IL-8, % of Control (IL-8; 200 μg/ml): 101 % of Control
- IL-6, % of Control (IL-6; [3]): 131 % of Control
- IL-6, % of Control (IL-6; 50 μgm/ml): 96 % of Control
- IL-6, % of Control (IL-6; 200 μgm/ml): 18 % of Control
- RdRp activity, % of Control ([1]; 10 μg test material): 25 % of Control
- RdRp activity, % of Control ([1]; 50 μg test material): 14 % of Control
- RdRp activity, % of Control [1, 4]: 7 % of Control
- inhibition of SARS-CoV-2 RNA replication (in words) [1]: marked inhibition

Molecule: Cc1cccc(C)c1OCC(=O)N[C@@H](Cc1ccccc1)[C@@H](O)C[C@H](Cc1ccccc1)NC(=O)[C@H](C(C)C)N1CCCNC1=O [Lopinavir, reference compound]
- IL-8, % of Control (IL-8; 10 μM): 103 % of Control
- IL-8, % of Control (IL-8; 50 μM): 104 % of Control
- IL-6, % of Control (IL-6; 10 μM): 73 % of Control
- IL-6, % of Control (IL-6; 50 μM): 81 % of Control
- EC50 [1]: > 50 µM
- RdRp activity, % of Control ([1]; 10 μM): 91 % of Control
- RdRp activity, % of Control ([1]; 50 μM): 80 % of Control
- inhibition of SARS-CoV-2 RNA replication (in words) [1]: neither Lopinavir, a commercial inhibitor of viral RNA replication, nor chebulic acid manifested effective inhibition

Molecule: O=C(OC[C@H]1O[C@@H](OC(=O)c2cc(O)c(O)c(O)c2)[C@H](OC(=O)c2cc(O)c(O)c(O)c2)[C@@H](OC(=O)c2cc(O)c(O)c(O)c2)[C@@H]1OC(=O)c1cc(O)c(O)c(O)c1)c1cc(O)c(O)c(O)c1 [Pentagallolyl glucose, Pentagalloyl glucose]
- IL-8, % of Control (IL-8; [2]): 100 % of Control
- IL-8, % of Control (IL-8; 50 μg/ml): 104 % of Control
- IL-8, % of Control (IL-8; 200 μg/ml): 0 % of Control
- IL-6, % of Control (IL-6; [3]): 91 % of Control
- IL-6, % of Control (IL-6; 50 μgm/ml): 64 % of Control
- IL-6, % of Control (IL-6; 200 μgm/ml): 0 % of Control
- RdRp activity, % of Control ([1]; 10 μg test material): 32 % of Control
- RdRp activity, % of Control ([1]; 50 μg test material): 12 % of Control
- RdRp activity, % of Control [1, 4]: 4 % of Control
- inhibition of SARS-CoV-2 RNA replication (in words) [1]: marked inhibition

Molecule: Actemra: a humanized anti-IL-6R monoclonal antibody
- patients experiencing a reduced need for supplemental oxygen (Covid-19 patients): 75%

Reference: patent US20210236529A1, “MULTI-TARGETED COMPOSITIONS FOR MITIGATING ACUTE RESPIRATORY DISTRESS SYNDROME” (priority 2020, published 2021)
